Laboratory results from ChEMBL document CHEMBL4385643, “Design of a brain-penetrant CDK4/6 inhibitor for glioblastoma” (Bioorg Med Chem Lett, 2019).

Assays:
[1] = molecular target: G protein-coupled receptor kinase 6 (Homo sapiens) (UniProt P43250); assay: Inhibition of recombinant full length human GST-tagged GRK6 expressed in baculovirus expression system at 0.1 uM using serine/threonine-16 peptide as substrate incubated for 60 mins by Z'-LYTE assay relative to control
[2] = molecular target: Serine/threonine-protein kinase 16 (Homo sapiens) (UniProt O75716); assay: Inhibition of tracer 236 binding to recombinant full length human His-tagged STK16 expressed in baculovirus expression system at 0.1 uM measured after 60 mins by Lanthascreen assay relative to control
[3] = molecular target: Casein kinase II subunit alpha (Homo sapiens) (UniProt P68400); assay: Inhibition of recombinant full length human His-tagged CK2 alpha 1 expressed in baculovirus expression system at 0.1 uM using serine/threonine-11 peptide as substrate incubated for 60 mins by Z'-LYTE assay relative to control
[4] = molecular target: Mitogen-activated protein kinase kinase kinase kinase 4 (Homo sapiens) (UniProt O95819); assay: Inhibition of recombinant human GST-tagged MAP4K4 catalytic domain (1 to 328 residues) expressed in baculovirus expression system at 0.1 uM using serine/threonine-7 peptide as substrate incubated for 60 mins by Z'-LYTE assay relative to control
[5] = molecular target: Mitogen-activated protein kinase 14 (Homo sapiens) (UniProt Q16539); assay: Inhibition of recombinant full length human GST-tagged p38alpha expressed in Escherichia coli expression system at 0.1 uM using serine/threonine-15 peptide as substrate incubated for 60 mins by Z'-LYTE assay relative to control
[6] = molecular target: Ephrin type-A receptor 1 (Homo sapiens) (UniProt P21709); assay: Inhibition of recombinant human GST-tagged EPHA1 (568 to 976 residues) expressed in baculovirus expression system at 0.1 uM using tyrosine-2 peptide as substrate incubated for 60 mins by Z'-LYTE assay relative to control
[7] = molecular target: Cyclin-dependent kinase 13/Cyclin-K (Homo sapiens) (UniProt Q14004+O75909); assay: Inhibition of tracer 236 binding to human GST/His-tagged CDK13/Cyclin K at 0.1 uM; type: protein-complex assay
[8] = molecular target: Ephrin type-A receptor 7 (Homo sapiens) (UniProt Q15375); assay: Inhibition of tracer 236 binding to recombinant human His-tagged EPHA7 (579 to 998 residues) expressed in baculovirus expression system at 0.1 uM measured after 60 mins by Lanthascreen assay relative to control
[9] = molecular target: Serine/threonine-protein kinase Nek9 (Homo sapiens) (UniProt Q8TD19); assay: Inhibition of recombinant human GST-tagged NEK9 catalytic domain (347 to 732 residues) expressed in baculovirus expression system at 0.1 uM using serine/threonine-7 peptide as substrate incubated for 60 mins by Z'-LYTE assay relative to control
[10] = molecular target: MAP/microtubule affinity-regulating kinase 3 (Homo sapiens) (UniProt P27448); assay: Inhibition of recombinant full length human GST-tagged MARK3 expressed in baculovirus expression system at 0.1 uM using serine/threonine-25 peptide as substrate incubated for 60 mins by Z'-LYTE assay relative to control
[11] = molecular target: LIM domain kinase 1 (Homo sapiens) (UniProt P53667); assay: Inhibition of tracer 236 binding to recombinant human His-tagged LIMK1 catalytic domain (285 to 638 residues) expressed in baculovirus expression system at 0.1 uM measured after 60 mins by Lanthascreen assay relative to control
[12] = molecular target: Insulin receptor (Homo sapiens) (UniProt P06213); assay: Inhibition of recombinant human GST-tagged INSR (1011 to 1382 residues) expressed in baculovirus expression system at 0.1 uM using tyrosine-1 peptide as substrate incubated for 60 mins by Z'-LYTE assay relative to control
[13] = molecular target: Macrophage colony-stimulating factor 1 receptor (Homo sapiens) (UniProt P07333); assay: Inhibition of recombinant human His-tagged CSF1R catalytic domain (538 to 910 residues) expressed in Baculovirus expression system at 0.1 uM using tyrosine-1 peptide as substrate incubated for 60 mins by Z'-LYTE assay relative to control
[14] = molecular target: Serine/threonine-protein kinase SIK2 (Homo sapiens) (UniProt Q9H0K1); assay: Inhibition of recombinant full length human GST-tagged SIK2 expressed in baculovirus expression system at 0.1 uM using serine/threonine-25 peptide as substrate incubated for 60 mins by Z'-LYTE assay relative to control
[15] = molecular target: Interleukin-1 receptor-associated kinase 4 (Homo sapiens) (UniProt Q9NWZ3); assay: Inhibition of recombinant full length human His-tagged IRAK4 expressed in baculovirus expression system at 0.1 uM using serine/threonine-7 peptide as substrate incubated for 60 mins by Z'-LYTE assay relative to control
[16] = molecular target: Cyclin-C/Cyclin-dependent kinase 19 (Homo sapiens) (UniProt Q9BWU1+P24863); assay: Inhibition of tracer 236 binding to recombinant human GST/His-tagged CDK11/Cyclin C catalytic domain (CDK11: 1 to 502, Cyclin C: 1 to 283) expressed in insect cells expression system at 0.1 uM measured after 60 mins by Lanthascreen assay relative to control
[17] = molecular target: Calcium/calmodulin-dependent protein kinase kinase 1 (Homo sapiens) (UniProt Q8N5S9); assay: Inhibition of tracer 236 binding to recombinant human GST-tagged CAMKK1 expressed in Escherichia coli expression system at 0.1 uM measured after 60 mins by Lanthascreen assay relative to control
[18] = molecular target: Phosphorylase b kinase gamma catalytic chain, liver/testis isoform (Homo sapiens) (UniProt P15735); assay: Inhibition of recombinant full length human GST-tagged PHKG2 expressed in baculovirus expression system at 0.1 uM using serine/threonine-7 peptide as substrate incubated for 60 mins by Z'-LYTE assay relative to control
[19] = molecular target: Cyclin-dependent kinase 4/cyclin D1 (Homo sapiens) (UniProt P11802+P24385); assay: Inhibition of recombinant full length human GST-tagged CDK4/Cyclin D1 expressed in baculovirus expression system at 0.1 uM using Rb peptide as substrate incubated for 60 mins by Adapta assay relative to control
[20] = molecular target: Calcium/calmodulin-dependent protein kinase type 1 (Homo sapiens) (UniProt Q14012); assay: Inhibition of recombinant full length human His-tagged CAMK1 expressed in baculovirus expression system at 0.1 uM using ZIPtide peptide as substrate incubated for 60 mins by Adapta assay relative to control
[21] = molecular target: Tyrosine-protein kinase TXK (Homo sapiens) (UniProt P42681); assay: Inhibition of recombinant human GST-tagged TXK catalytic domain (260 to 527 residues) expressed in baculovirus expression system at 0.1 uM using tyrosine-6 peptide as substrate incubated for 60 mins by Z'-LYTE assay relative to control
[22] = molecular target: DNA-dependent protein kinase catalytic subunit (Homo sapiens) (UniProt P78527); assay: Inhibition of recombinant human DNA-PK expressed in baculovirus expression system at 0.1 uM using serine/threonine-26 peptide as substrate incubated for 60 mins by Z'-LYTE assay relative to control
[23] = molecular target: MAP kinase-interacting serine/threonine-protein kinase 1 (Homo sapiens) (UniProt Q9BUB5); assay: Inhibition of recombinant full length human GST-tagged MKNK1 expressed in insect expression system at 0.1 uM using serine/threonine-7 peptide as substrate incubated for 60 mins by Z'-LYTE assay relative to control

Chain of Phosphorylase b kinase gamma catalytic chain, liver/testis isoform (Homo sapiens) (P15735 whole entry, canonical isoform): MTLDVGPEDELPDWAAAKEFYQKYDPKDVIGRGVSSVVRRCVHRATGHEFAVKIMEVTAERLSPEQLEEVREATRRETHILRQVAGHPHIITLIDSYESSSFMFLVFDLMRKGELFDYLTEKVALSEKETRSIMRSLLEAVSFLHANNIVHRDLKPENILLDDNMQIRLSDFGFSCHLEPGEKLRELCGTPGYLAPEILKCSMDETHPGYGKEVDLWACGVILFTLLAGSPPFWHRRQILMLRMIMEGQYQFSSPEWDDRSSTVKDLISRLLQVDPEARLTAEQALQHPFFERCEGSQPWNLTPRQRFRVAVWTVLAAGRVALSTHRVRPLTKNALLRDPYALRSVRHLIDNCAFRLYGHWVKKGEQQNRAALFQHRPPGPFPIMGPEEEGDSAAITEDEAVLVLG
Chain of MAP/microtubule affinity-regulating kinase 3 (Homo sapiens) (P27448 whole entry, looked up, the tested form may be a part): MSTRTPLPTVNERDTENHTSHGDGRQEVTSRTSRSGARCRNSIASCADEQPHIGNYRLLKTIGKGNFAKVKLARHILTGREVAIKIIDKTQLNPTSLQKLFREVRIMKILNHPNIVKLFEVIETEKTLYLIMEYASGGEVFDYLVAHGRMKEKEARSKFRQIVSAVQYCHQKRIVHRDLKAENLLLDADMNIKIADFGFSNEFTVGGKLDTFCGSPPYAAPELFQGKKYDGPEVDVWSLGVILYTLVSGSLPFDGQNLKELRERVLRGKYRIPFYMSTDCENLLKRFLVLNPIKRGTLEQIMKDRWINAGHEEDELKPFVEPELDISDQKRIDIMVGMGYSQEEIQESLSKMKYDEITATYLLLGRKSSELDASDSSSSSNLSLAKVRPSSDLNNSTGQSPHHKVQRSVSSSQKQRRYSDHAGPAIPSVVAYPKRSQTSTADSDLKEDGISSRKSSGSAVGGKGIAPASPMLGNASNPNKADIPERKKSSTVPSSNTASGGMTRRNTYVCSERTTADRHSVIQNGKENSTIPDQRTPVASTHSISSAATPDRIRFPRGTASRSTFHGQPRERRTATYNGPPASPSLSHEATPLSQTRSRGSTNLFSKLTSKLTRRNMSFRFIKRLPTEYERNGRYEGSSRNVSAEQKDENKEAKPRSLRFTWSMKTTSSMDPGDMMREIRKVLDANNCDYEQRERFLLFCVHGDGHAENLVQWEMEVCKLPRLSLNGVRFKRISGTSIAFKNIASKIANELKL
Chain of Serine/threonine-protein kinase Nek9 (Homo sapiens) (Q8TD19 whole entry, the tested form may be a part): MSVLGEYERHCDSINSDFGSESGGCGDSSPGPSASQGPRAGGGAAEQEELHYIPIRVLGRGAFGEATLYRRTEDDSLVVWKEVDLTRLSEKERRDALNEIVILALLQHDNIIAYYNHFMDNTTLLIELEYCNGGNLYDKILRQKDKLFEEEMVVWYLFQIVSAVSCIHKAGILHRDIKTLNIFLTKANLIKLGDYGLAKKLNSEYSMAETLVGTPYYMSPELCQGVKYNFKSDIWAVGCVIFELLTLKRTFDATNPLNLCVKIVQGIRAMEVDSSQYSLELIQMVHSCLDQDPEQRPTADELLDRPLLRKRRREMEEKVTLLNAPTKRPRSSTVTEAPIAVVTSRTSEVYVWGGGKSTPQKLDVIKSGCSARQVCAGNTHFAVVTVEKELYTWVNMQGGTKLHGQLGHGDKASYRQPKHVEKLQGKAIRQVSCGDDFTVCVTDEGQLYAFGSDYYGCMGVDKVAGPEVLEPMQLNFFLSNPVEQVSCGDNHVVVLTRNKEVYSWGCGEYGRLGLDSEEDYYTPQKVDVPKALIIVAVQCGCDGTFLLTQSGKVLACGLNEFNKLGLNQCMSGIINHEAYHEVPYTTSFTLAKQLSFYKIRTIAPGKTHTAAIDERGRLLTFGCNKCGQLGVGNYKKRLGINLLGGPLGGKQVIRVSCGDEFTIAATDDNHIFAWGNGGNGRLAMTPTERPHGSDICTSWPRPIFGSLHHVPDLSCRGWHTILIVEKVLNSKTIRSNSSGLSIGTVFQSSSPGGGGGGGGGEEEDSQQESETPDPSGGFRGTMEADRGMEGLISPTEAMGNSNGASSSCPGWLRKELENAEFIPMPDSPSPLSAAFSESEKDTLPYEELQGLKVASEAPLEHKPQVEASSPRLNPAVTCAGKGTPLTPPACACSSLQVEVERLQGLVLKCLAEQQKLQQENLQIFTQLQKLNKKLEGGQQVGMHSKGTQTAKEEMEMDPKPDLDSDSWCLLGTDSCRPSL
Chain of Calcium/calmodulin-dependent protein kinase kinase 1 (Homo sapiens) (Q8N5S9 whole entry, looked up, canonical isoform): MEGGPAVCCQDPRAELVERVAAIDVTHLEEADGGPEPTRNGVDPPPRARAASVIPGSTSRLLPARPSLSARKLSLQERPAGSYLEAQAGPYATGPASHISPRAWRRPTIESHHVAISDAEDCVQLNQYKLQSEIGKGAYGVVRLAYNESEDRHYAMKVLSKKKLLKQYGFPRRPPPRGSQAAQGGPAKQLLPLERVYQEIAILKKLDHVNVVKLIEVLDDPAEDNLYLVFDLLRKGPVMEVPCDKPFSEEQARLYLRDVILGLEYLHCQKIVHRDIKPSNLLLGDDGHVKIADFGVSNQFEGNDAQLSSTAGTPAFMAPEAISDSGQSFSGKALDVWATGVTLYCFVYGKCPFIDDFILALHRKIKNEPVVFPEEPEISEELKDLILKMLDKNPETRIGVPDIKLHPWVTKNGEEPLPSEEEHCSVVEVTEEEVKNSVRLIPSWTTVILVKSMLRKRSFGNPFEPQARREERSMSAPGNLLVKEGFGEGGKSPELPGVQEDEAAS
Chain of Tyrosine-protein kinase TXK (Homo sapiens) (P42681 whole entry, the tested form may be a part): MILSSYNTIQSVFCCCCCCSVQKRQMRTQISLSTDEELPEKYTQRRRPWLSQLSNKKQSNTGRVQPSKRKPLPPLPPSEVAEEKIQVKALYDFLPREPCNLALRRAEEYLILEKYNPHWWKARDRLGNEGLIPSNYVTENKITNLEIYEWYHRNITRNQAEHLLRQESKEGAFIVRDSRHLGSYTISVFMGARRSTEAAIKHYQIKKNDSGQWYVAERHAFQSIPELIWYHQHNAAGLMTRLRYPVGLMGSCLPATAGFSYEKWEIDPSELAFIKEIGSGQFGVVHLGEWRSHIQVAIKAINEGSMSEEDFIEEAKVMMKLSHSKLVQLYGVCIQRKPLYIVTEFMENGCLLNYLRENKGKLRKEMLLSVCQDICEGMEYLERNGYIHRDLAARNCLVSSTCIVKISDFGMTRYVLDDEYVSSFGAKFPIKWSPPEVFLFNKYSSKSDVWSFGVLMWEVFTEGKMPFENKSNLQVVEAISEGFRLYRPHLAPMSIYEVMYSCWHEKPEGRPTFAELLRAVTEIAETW
Chain of G protein-coupled receptor kinase 6 (Homo sapiens) (P43250 whole entry, looked up): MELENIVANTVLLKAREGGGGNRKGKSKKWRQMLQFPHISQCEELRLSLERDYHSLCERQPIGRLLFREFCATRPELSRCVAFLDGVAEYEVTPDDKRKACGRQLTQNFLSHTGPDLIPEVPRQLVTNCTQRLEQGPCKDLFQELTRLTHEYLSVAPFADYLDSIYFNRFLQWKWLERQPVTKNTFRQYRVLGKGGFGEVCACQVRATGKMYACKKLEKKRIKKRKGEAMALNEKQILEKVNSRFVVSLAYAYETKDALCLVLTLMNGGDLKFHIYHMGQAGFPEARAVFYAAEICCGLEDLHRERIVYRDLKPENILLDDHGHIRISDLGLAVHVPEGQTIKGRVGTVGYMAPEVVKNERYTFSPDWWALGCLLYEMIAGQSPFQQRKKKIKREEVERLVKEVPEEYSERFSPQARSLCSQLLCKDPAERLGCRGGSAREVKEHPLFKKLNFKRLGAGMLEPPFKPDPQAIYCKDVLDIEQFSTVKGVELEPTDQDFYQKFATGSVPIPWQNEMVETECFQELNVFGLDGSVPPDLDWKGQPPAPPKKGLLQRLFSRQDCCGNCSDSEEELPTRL
Chain of LIM domain kinase 1 (Homo sapiens) (P53667 whole entry, looked up, the tested form may be a part): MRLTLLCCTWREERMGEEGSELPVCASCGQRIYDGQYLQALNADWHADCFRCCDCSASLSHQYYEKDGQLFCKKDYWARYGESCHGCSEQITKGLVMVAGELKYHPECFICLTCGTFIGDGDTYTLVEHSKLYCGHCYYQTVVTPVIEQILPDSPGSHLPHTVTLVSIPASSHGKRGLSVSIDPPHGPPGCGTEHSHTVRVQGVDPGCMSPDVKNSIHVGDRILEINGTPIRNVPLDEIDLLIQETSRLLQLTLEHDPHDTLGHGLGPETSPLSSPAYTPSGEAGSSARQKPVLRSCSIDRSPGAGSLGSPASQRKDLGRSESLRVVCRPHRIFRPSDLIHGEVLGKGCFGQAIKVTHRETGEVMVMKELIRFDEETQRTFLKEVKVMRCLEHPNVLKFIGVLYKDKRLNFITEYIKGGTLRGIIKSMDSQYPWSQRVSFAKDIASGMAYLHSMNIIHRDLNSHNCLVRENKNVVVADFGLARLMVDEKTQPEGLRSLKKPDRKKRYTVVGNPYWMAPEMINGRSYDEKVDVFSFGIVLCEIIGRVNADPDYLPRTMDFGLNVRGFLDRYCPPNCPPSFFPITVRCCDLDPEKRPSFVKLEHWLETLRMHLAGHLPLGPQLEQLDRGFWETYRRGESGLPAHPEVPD
Chain of Casein kinase II subunit alpha (Homo sapiens) (P68400 whole entry, looked up, the tested form may be a part): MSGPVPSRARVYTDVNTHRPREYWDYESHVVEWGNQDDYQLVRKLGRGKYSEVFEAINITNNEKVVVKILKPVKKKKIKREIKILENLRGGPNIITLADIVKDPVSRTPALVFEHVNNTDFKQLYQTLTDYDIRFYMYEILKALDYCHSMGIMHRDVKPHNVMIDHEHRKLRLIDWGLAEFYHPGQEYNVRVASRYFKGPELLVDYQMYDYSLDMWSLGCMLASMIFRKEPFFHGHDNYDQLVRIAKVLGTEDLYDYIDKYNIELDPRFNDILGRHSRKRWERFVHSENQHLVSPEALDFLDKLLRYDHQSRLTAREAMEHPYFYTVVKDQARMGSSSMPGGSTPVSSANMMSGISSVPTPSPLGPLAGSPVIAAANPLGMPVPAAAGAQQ

SMILES	inhibition [1]	inhibition [2]	inhibition [3]	inhibition [4]	inhibition [5]	inhibition [6]	inhibition [7]	inhibition [8]	inhibition [9]	inhibition [10]	inhibition [11]	inhibition [12]	inhibition [13]	inhibition [14]	inhibition [15]	inhibition [16]	inhibition [17]	inhibition [18]	inhibition [19]	inhibition [20]	also measured
CCN1CCN(Cc2ccc(Nc3ncc(F)c(-c4cc(F)c5nc(C)n(C(C)C)c5c4)n3)nc2)CC1 [ABEMACICLIB]	6%	91.5%	31.5%	89.5%	-1%	8%	38%	11.7%	2%	16%	3.7%	3.5%	41.4%	6%	9%	19%	12.6%	7%	87%	26.7%	inhibition [21]: 6.5%; inhibition [22]: 14%; inhibition [23]: 27%
CCN1CC2(C1)CN(c1ccc(Nc3ncc(F)c(-c4cnn5c4[C@H](C)CCCC5)n3)nc1)C2	2.5%	29.5%	0.5%	39%	3%	9.5%	50%	5.5%	-1.5%	15%	-2%	-1.5%	88%	26.5%	3.5%	81%	12%	23%	94%	10.5%	inhibition [21]: -1%; inhibition [22]: 6%; inhibition [23]: 18%
